Measured values: the METLIN SMRT retention time set (Domingo-Almenara et al. 2019)

Assay: gradient 5% acetonitrile 3 min, to 50% in 2 min, to 85% in 15 min, held 3 min, 100 µL/min
Conditions: column: Zorbax Extend-C18 2.1 x 50 mm; eluents: water / acetonitrile, 0.1% formic acid
Summary of the method: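 Retention times come from adduct peaks that were picked computationally and then checked by hand. The standards, pure and pooled in mixtures of ~100 molecules, were run on a Zorbax Extend-C18 column (2.1 × 50 mm, 1.8 μm) at 100 μL/min with water and acetonitrile, each with 0.1% formic acid. Detection was by quadrupole time-of-flight mass spectrometry in positive and negative ionization mode, with a dead volume of 40 μL and a dwell volume of 900 μL.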

Row | SMILES | RP-LC retention time
1 | Cc1cc(C(=O)N2CCC3(CC2)CC(C)(O)CCO3)c(C)o1 (stereo not given) | 677 s
2 | COCCc1noc(C2Cc3ccccc3N2C(=O)Nc2cc(OC)cc(OC)c2)n1 (stereo not given) | 929 s
3 | CCCc1nc(-c2c(C)cc(C)nc2NC(=O)c2ccccc2F)no1 | 883 s
4 | Cc1ccnc(NC(=O)C2CCCN(c3cc(=O)n(C)c(=O)n3C)C2)c1 (stereo not given) | 570 s
5 | Cc1cccc(C(=O)NCCc2c[nH]c3ccc(C)cc23)c1 | 890 s
6 | Cc1cc(C)n(CCNC(=O)NC(c2ccccc2)c2ccccc2)n1 | 716 s
7 | CC(=O)N1CCCSc2ccc(S(=O)(=O)N3CCN(c4cc(Cl)ccc4C)CC3)cc21 | 1180 s
8 | CCN1C(=O)c2cc(C(=O)NCCc3ccccc3)nn2CC1(C)C(=O)NC1CCCC1 (stereo not given) | 791 s
9 | CC(C)C(=O)N1CCc2cc(-c3ccc(C(=O)N4CCN(C(=O)c5ccco5)CC4)cc3)ccc21 | 830 s
10 | O=S(=O)(c1ccccc1Cl)N1CCC(c2noc(COCc3ccccc3)n2)CC1 | 1100 s
11 | COc1cc(Cl)ccc1C(=O)N1CCC(COc2ccc(C(=O)NC(C)C)cc2)CC1 | 801 s
12 | O=C(NCc1cccnc1)C1CCN(S(=O)(=O)c2cc(-c3noc(C4CCC4)n3)cs2)CC1 | 702 s
13 | CCN1CCn2cc(C(=O)NCc3cc(C)ccc3C)nc2C1 | 592 s
14 | O=C(CSc1ccc(-c2ccc3c(c2)OCO3)nn1)c1cccs1 | 854 s
15 | CCCN1CCN(C(=O)C2CCN(S(=O)(=O)c3ccc4c(c3)NC(=O)C(C)S4)CC2)CC1 (stereo not given) | 593 s
16 | Cc1ccc(Cn2c(=O)c(N3CCCC(C(=O)NCCc4c(C)noc4C)C3)nc3ccccc32)cc1 (stereo not given) | 1080 s
17 | O=C(NCCN1CCN(c2ccccc2F)CC1)C1CCCN(c2nc3cccnc3s2)C1 (stereo not given) | 632 s
18 | Cc1cccc(NC(=O)Cn2c(C)nc3c(sc4nc(-c5ccccc5)ccc43)c2=O)c1C | 1170 s
19 | CC1CCCCN1C(=O)Cn1c(=O)n(C2CCCCC2)c(=O)c2ccccc21 (stereo not given) | 1010 s
20 | CCOc1cccc(CNC(=O)C2CCc3nc(N4CCOCC4)ncc3C2)c1 (stereo not given) | 743 s
21 | Cc1ccc(C)c(CNC(=O)C2CCN(c3cnc4nccnc4c3)CC2)c1 | 722 s
22 | O=C(CCc1c(-c2ccc(Cl)cc2)nc2ccccn12)NC1CCCC1 | 638 s

Row | SMILES | RP-LC retention time
23 | CCOC(=O)C1=C(CN(C)Cc2ccccc2)NC(=O)NC1c1ccc(Cl)cc1 (stereo not given) | 698 s
24 | O=C1[C@H]2CN(Cc3ccc(C(F)(F)F)cc3)C[C@H]2C(=O)N1CCc1ccccc1 | 984 s
25 | COc1ccc(C2C(C(=O)NCc3ccco3)c3cc(OC)c(OC)cc3C(=O)N2C)cc1 (stereo not given) | 758 s
26 | CSc1ccc(-c2nc3cnccn3c2Nc2cccc(C(=O)NCc3ccco3)c2)cc1 | 793 s
27 | COc1ccc(-c2ncc3c(n2)CCN(S(=O)(=O)c2ccc(F)c(C)c2)C3)cc1 | 1100 s
28 | CCOc1ccc(N2CC(c3nc(-c4ccccc4Cl)no3)CC2=O)cc1 (stereo not given) | 1000 s
29 | COc1ccc(NC(=O)N2CCC(N3C[C@H]4C[C@H](C3)[C@H]3CCCC(=O)N3C4)CC2)cc1 | 573 s
30 | O=C(NC1CCN(c2cc(-c3ccc(F)cc3)[nH]n2)C1)c1ccc(F)c(F)c1 (stereo not given) | 807 s
31 | CCOC(=O)c1cn(CC)c2cc(N3CCCC3)c(F)cc2c1=O | 822 s
32 | COCCC1(NC(=O)C2CCOCC2)CCN(C(=O)C2CC=CC2)CC1 | 632 s
33 | Fc1ccccc1N1CCN(Cc2nc(-c3ccc(N4CCCCC4)nc3)no2)CC1 | 972 s
34 | COc1ccc(NC(=O)NC2CCN(c3ccccc3)C2=O)c(OC)c1 (stereo not given) | 761 s
35 | CC(C)OCCCNC(=O)c1c2c(cn(-c3ccc(F)cc3)c1=O)C(=O)CC(C)(C)C2 | 885 s
36 | Cc1ccc(C(=O)N2CCc3cn(C)c4cccc(c34)C2)cc1F | 997 s
37 | Cc1ccc(C(=O)N2CCC3(CC2)NC(=O)c2cc(F)ccc2N3C)cc1 | 776 s
38 | O=C(C1CCN(c2cc(N3CCCCC3)ncn2)CC1)N1CCC(N2CCCCC2)CC1 | 557 s
39 | CCN(CC)c1ncc2c(n1)CCC(C(=O)NCc1cccc(OC)c1)C2 (stereo not given) | 695 s
40 | CCc1ccc(OCc2nc(CCN(C)C(=O)c3cccs3)no2)cc1 | 924 s
41 | CCOc1ccccc1NC(=O)Cn1c(=O)n(Cc2cccs2)c(=O)c2ncccc21 | 772 s
42 | O=C(Nc1ccc(F)c(F)c1)c1c(O)c2cccnc2n(-c2cccc(F)c2)c1=O | 1260 s
43 | CCOC(=O)N1CCN(c2ncc(C(=O)NCc3ccccc3)c(N)n2)CC1 | 656 s
44 | O=C(NCc1ccc(N2CCCC2)nc1)c1ccc(Cl)s1 | 634 s

Row | SMILES | RP-LC retention time
45 | O=C(NCc1ccccc1)c1cn(-c2ccc(NC(=O)C3CC3)cn2)cn1 | 725 s
46 | CCCCOC(=O)Cn1c(=O)c2c(nc3n2CCCCN3c2ccc(OCC)cc2)n(C)c1=O | 1100 s
47 | C[C@@H](NC(=O)c1cc(C(=O)N[C@@H](Cc2ccccc2)[C@H](O)CNC2CC2)cc(N(C)S(C)(=O)=O)c1)c1ccccc1 | 705 s
48 | CN(C)C(=O)OCC1COc2ccccc2O1 (stereo not given) | 883 s
49 | Cc1ccc(CNC(=O)C2(C)Cn3cnc(C(=O)NCc4cccc(C)c4)c3C(=O)N2C2CC2)cc1 (stereo not given) | 813 s
50 | CCn1nc(C)c2ccn(CC(=O)NCc3cc(F)cc(F)c3)c(=O)c21 | 757 s
51 | CCCc1c(C(=O)O)nnn1Cc1ccccc1Cl | 796 s
52 | CCc1ccccc1N1C(=O)CN(S(C)(=O)=O)CC1(C)C(=O)NCc1ccc(Cl)cc1 (stereo not given) | 893 s
53 | COc1ccccc1C(=O)N1CCCC(COc2ccc(C(=O)NC(C)C)cc2)C1 (stereo not given) | 830 s
54 | COc1ccc(C(C)NC(=O)Cc2cn(C)c3ncccc23)cc1 (stereo not given) | 678 s
55 | CNC(=O)c1nsc(C(=O)OC)c1N | 677 s
56 | Cc1nc([C@@H]2CN(C(=O)c3cscn3)C[C@H]2C(N)=O)n[nH]1 | 533 s
57 | CC(C)Oc1ccc(-c2noc(CN3N=NC4C(=O)N(c5cccc(Cl)c5)C(=O)C43)n2)cc1 (stereo not given) | 1040 s
58 | CC(CCNC(=O)c1ccc2ccnc(N3CCN(c4ccc(F)cc4)CC3)c2c1)N1CCCC1 (stereo not given) | 597 s
59 | C=C(C)CSc1nnc(-c2ccc(OC)cc2)o1 | 1030 s
60 | CC(=O)Nc1ccc(N2C(=O)c3cccc4c([N+](=O)[O-])ccc(c34)C2=O)cc1 | 714 s
61 | CCCCN(Cc1nc2nc(C)cc(C)n2n1)C(=O)c1ccccc1 | 757 s
62 | Cc1c(Cl)cccc1NC(=O)N1CCCC(C)(C(=O)NCc2ccccc2)C1 (stereo not given) | 1010 s
63 | CC(C)Cn1c(CC2CCN(C(=O)COc3ccccc3)C2)nc2cccnc21 (stereo not given) | 672 s
64 | Cc1cnc(-c2cccnc2)n1C1CCN(S(=O)(=O)c2cccnc2)C1 (stereo not given) | 575 s
65 | Cc1ccc(-n2nc3c(=O)n(CCCC(=O)N4CCC(C(N)=O)CC4)nc(C)c3c2C)cc1 | 648 s
